Assay results published in PubChem BioAssay (NCI).
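Cultured in 96-well plates, cells were exposed to test compound for 48 hours across five concentrations. Definition used: TGI = concentration required for complete inhibition of growth.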

Experiments:
Assay in all cases: NCI tumour cell line growth inhibition, 48 h
SF-539 CNS = system: SF-539 CNS
CCRF-CEM leukemia = system: CCRF-CEM leukemia
HCT-15 colon = system: HCT-15 colon
SW-620 colon = system: SW-620 colon
HOP-62 NSCLC = system: HOP-62 NSCLC
HOP-92 NSCLC = system: HOP-92 NSCLC
M19-MEL melanoma = system: M19-MEL melanoma
SK-MEL-5 melanoma = system: SK-MEL-5 melanoma
UO-31 renal = system: UO-31 renal
DLD-1 colon = system: DLD-1 colon
SNB-19 CNS = system: SNB-19 CNS
RXF 393 renal = system: RXF 393 renal
HT29 colon = system: HT29 colon
EKVX NSCLC = system: EKVX NSCLC
A549 NSCLC = system: A549 NSCLC
A498 renal = system: A498 renal
KM20L2 colon = system: KM20L2 colon
NCI-H460 lung = system: NCI-H460 lung
LOX IMVI melanoma = system: LOX IMVI melanoma
NCI-H522 lung = system: NCI-H522 lung
OVCAR-8 ovarian = system: OVCAR-8 ovarian
U251 CNS = system: U251 CNS
TK-10 renal = system: TK-10 renal
UACC-62 melanoma = system: UACC-62 melanoma
SK-MEL-28 melanoma = system: SK-MEL-28 melanoma
COLO 205 colon = system: COLO 205 colon
HOP-18 NSCLC = system: HOP-18 NSCLC
SK-OV-3 ovarian = system: SK-OV-3 ovarian
SF-268 CNS = system: SF-268 CNS
XF 498 CNS = system: XF 498 CNS
M14 melanoma = system: M14 melanoma
CAKI-1 renal = system: CAKI-1 renal
RPMI-8226 leukemia = system: RPMI-8226 leukemia
786-0 renal = system: 786-0 renal
NCI-H23 lung = system: NCI-H23 lung
HL-60(TB) leukemia = system: HL-60(TB) leukemia
DMS 273 small cell lung = system: DMS 273 small cell lung
DMS 114 small cell lung = system: DMS 114 small cell lung
IGROV1 ovarian = system: IGROV1 ovarian
SR leukemia = system: SR leukemia
MOLT-4 leukemia = system: MOLT-4 leukemia
SN12C renal = system: SN12C renal
KM12 colon = system: KM12 colon
NCI-H226 lung = system: NCI-H226 lung
MALME-3M melanoma = system: MALME-3M melanoma
UACC-257 melanoma = system: UACC-257 melanoma
OVCAR-3 ovarian = system: OVCAR-3 ovarian
SK-MEL-2 melanoma = system: SK-MEL-2 melanoma
SF-295 CNS = system: SF-295 CNS
K-562 leukemia = system: K-562 leukemia
LXFL 529 NSCLC = system: LXFL 529 NSCLC
HCT-116 colon = system: HCT-116 colon
ACHN renal = system: ACHN renal
HCC-2998 colon = system: HCC-2998 colon
OVCAR-4 ovarian = system: OVCAR-4 ovarian
OVCAR-5 ovarian = system: OVCAR-5 ovarian
SNB-78 CNS = system: SNB-78 CNS
SNB-75 CNS = system: SNB-75 CNS
BT-549 breast = system: BT-549 breast
MDA-MB-231 breast = system: MDA-MB-231 breast
T-47D breast = system: T-47D breast
NCI/ADR-RES ovarian = system: NCI/ADR-RES ovarian
HS 578T breast = system: HS 578T breast
PC-3 prostate = system: PC-3 prostate
DU-145 prostate = system: DU-145 prostate
MDA-N = system: MDA-N
MCF7 breast = system: MCF7 breast
MDA-MB-435 = system: MDA-MB-435

## Cc1nc2ccccc2c(=O)n1/N=C(\N=Nc1ccccc1Cl)c1ccccc1
SF-539 CNS
  TGI: 43.1 µM
CCRF-CEM leukemia
  TGI: 55.2 µM
HCT-15 colon
  TGI: > 100 µM
SW-620 colon
  TGI: 63.9 µM
HOP-62 NSCLC
  TGI: > 100 µM
HOP-92 NSCLC
  TGI: > 100 µM
M19-MEL melanoma
  TGI: 67.2 µM
SK-MEL-5 melanoma
  TGI: 41.9 µM
UO-31 renal
  TGI: > 100 µM
DLD-1 colon
  TGI: > 100 µM
SNB-19 CNS
  TGI: > 100 µM
RXF 393 renal
  TGI: 85.3 µM
HT29 colon
  TGI: 47.6 µM
EKVX NSCLC
  TGI: 78.3 µM
A549 NSCLC
  TGI: > 100 µM
A498 renal
  TGI: > 100 µM
KM20L2 colon
  TGI: 48.7 µM
NCI-H460 lung
  TGI: > 100 µM
LOX IMVI melanoma
  TGI: 97.9 µM
NCI-H522 lung
  TGI: 60.9 µM
OVCAR-8 ovarian
  TGI: > 100 µM
U251 CNS
  TGI: > 100 µM
TK-10 renal
  TGI: > 100 µM
UACC-62 melanoma
  TGI: 46.6 µM
SK-MEL-28 melanoma
  TGI: > 100 µM
COLO 205 colon
  TGI: 49.2 µM
HOP-18 NSCLC
  TGI: > 100 µM
SK-OV-3 ovarian
  TGI: > 100 µM
SF-268 CNS
  TGI: > 100 µM
XF 498 CNS
  TGI: 45.7 µM
M14 melanoma
  TGI: 97.7 µM
CAKI-1 renal
  TGI: 43 µM
RPMI-8226 leukemia
  TGI: 49.2 µM
786-0 renal
  TGI: 36.7 µM
NCI-H23 lung
  TGI: > 100 µM
HL-60(TB) leukemia
  TGI: 38.3 µM
DMS 273 small cell lung
  TGI: > 100 µM
DMS 114 small cell lung
  TGI: 37.8 µM
IGROV1 ovarian
  TGI: 38.9 µM

## O=C(/C=N/O)Nc1ccc(Cl)c(I)c1
CCRF-CEM leukemia
  TGI: 94.8 µM
SR leukemia
  TGI: 61.2 µM
HCT-15 colon
  TGI: 63.9 µM
SW-620 colon
  TGI: > 100 µM
HOP-62 NSCLC
  TGI: 70.7 µM
M19-MEL melanoma
  TGI: 60.9 µM
SK-MEL-5 melanoma
  TGI: 35.2 µM
UO-31 renal
  TGI: 33.1 µM
DLD-1 colon
  TGI: > 100 µM
MOLT-4 leukemia
  TGI: 56.5 µM
SNB-19 CNS
  TGI: 83.9 µM
RXF 393 renal
  TGI: 46.7 µM
HT29 colon
  TGI: > 100 µM
EKVX NSCLC
  TGI: 63.9 µM
SN12C renal
  TGI: 63.9 µM
A549 NSCLC
  TGI: 94 µM
KM20L2 colon
  TGI: > 100 µM
KM12 colon
  TGI: 68.3 µM
NCI-H226 lung
  TGI: 17.8 µM
MALME-3M melanoma
  TGI: 64.2 µM
NCI-H460 lung
  TGI: 47.2 µM
UACC-257 melanoma
  TGI: > 100 µM
OVCAR-3 ovarian
  TGI: 60.3 µM
SK-MEL-2 melanoma
  TGI: 31.3 µM
LOX IMVI melanoma
  TGI: 31.4 µM
SF-295 CNS
  TGI: 94.8 µM
NCI-H522 lung
  TGI: 34.6 µM
OVCAR-8 ovarian
  TGI: > 100 µM
K-562 leukemia
  TGI: > 100 µM
U251 CNS
  TGI: 39.4 µM
LXFL 529 NSCLC
  TGI: 42.1 µM
TK-10 renal
  TGI: > 100 µM
UACC-62 melanoma
  TGI: 35.4 µM
SK-MEL-28 melanoma
  TGI: 72.6 µM
COLO 205 colon
  TGI: 31.7 µM
HCT-116 colon
  TGI: 25.5 µM
SK-OV-3 ovarian
  TGI: 56 µM
SF-268 CNS
  TGI: 69.2 µM
XF 498 CNS
  TGI: 64.8 µM
ACHN renal
  TGI: 85.2 µM
M14 melanoma
  TGI: 43.7 µM
HCC-2998 colon
  TGI: 33.7 µM
OVCAR-4 ovarian
  TGI: > 100 µM
CAKI-1 renal
  TGI: 45.2 µM
RPMI-8226 leukemia
  TGI: 77.8 µM
786-0 renal
  TGI: 88.4 µM
NCI-H23 lung
  TGI: 42.3 µM
HL-60(TB) leukemia
  TGI: 54.1 µM
OVCAR-5 ovarian
  TGI: 62.2 µM
DMS 273 small cell lung
  TGI: 41.9 µM
DMS 114 small cell lung
  TGI: 50 µM
IGROV1 ovarian
  TGI: 39.2 µM

## C=C[Si](C)(C)COC(=O)/C(C#N)=C/C=C/c1ccccc1
SF-539 CNS
  TGI: > 100 µM
CCRF-CEM leukemia
  TGI: > 100 µM
SR leukemia
  TGI: 79.9 µM
HCT-15 colon
  TGI: > 100 µM
SW-620 colon
  TGI: > 100 µM
HOP-62 NSCLC
  TGI: > 100 µM
HOP-92 NSCLC
  TGI: > 100 µM
M19-MEL melanoma
  TGI: > 100 µM
SK-MEL-5 melanoma
  TGI: > 100 µM
UO-31 renal
  TGI: > 100 µM
DLD-1 colon
  TGI: > 100 µM
MOLT-4 leukemia
  TGI: > 100 µM
SNB-19 CNS
  TGI: > 100 µM
RXF 393 renal
  TGI: > 100 µM
HT29 colon
  TGI: > 100 µM
EKVX NSCLC
  TGI: > 100 µM
SN12C renal
  TGI: > 100 µM
A549 NSCLC
  TGI: > 100 µM
KM20L2 colon
  TGI: > 100 µM
KM12 colon
  TGI: > 100 µM
NCI-H226 lung
  TGI: > 100 µM
MALME-3M melanoma
  TGI: > 100 µM
NCI-H460 lung
  TGI: > 100 µM
UACC-257 melanoma
  TGI: > 100 µM
OVCAR-3 ovarian
  TGI: > 100 µM
SK-MEL-2 melanoma
  TGI: > 100 µM
SF-295 CNS
  TGI: > 100 µM
NCI-H522 lung
  TGI: > 100 µM
OVCAR-8 ovarian
  TGI: > 100 µM
K-562 leukemia
  TGI: > 100 µM
U251 CNS
  TGI: > 100 µM
LXFL 529 NSCLC
  TGI: > 100 µM
SNB-78 CNS
  TGI: > 100 µM
UACC-62 melanoma
  TGI: > 100 µM
SK-MEL-28 melanoma
  TGI: > 100 µM
COLO 205 colon
  TGI: > 100 µM
HCT-116 colon
  TGI: > 100 µM
HOP-18 NSCLC
  TGI: > 100 µM
SK-OV-3 ovarian
  TGI: > 100 µM
SNB-75 CNS
  TGI: 94 µM
SF-268 CNS
  TGI: > 100 µM
ACHN renal
  TGI: > 100 µM
M14 melanoma
  TGI: > 100 µM
HCC-2998 colon
  TGI: > 100 µM
OVCAR-4 ovarian
  TGI: > 100 µM
RPMI-8226 leukemia
  TGI: > 100 µM
786-0 renal
  TGI: > 100 µM
NCI-H23 lung
  TGI: > 100 µM
HL-60(TB) leukemia
  TGI: > 100 µM
OVCAR-5 ovarian
  TGI: > 100 µM
DMS 273 small cell lung
  TGI: > 100 µM
DMS 114 small cell lung
  TGI: > 100 µM
IGROV1 ovarian
  TGI: > 100 µM

## COC(=O)/C=C/C(=O)Nc1cc(Cl)c(Cl)cc1CC(=O)N(C)[C@H]1CCCC[C@@H]1N1CCCC1
SF-539 CNS
  TGI: 13.3 µM
CCRF-CEM leukemia
  TGI: > 100 µM
SR leukemia
  TGI: > 28.3 µM
BT-549 breast
  TGI: 26.8 µM
HCT-15 colon
  TGI: 28 µM
SW-620 colon
  TGI: 26.7 µM
HOP-62 NSCLC
  TGI: 33.3 µM
HOP-92 NSCLC
  TGI: 18.7 µM
SK-MEL-5 melanoma
  TGI: 22.9 µM
UO-31 renal
  TGI: 21.3 µM
MOLT-4 leukemia
  TGI: 13.8 µM
SNB-19 CNS
  TGI: 37.7 µM
RXF 393 renal
  TGI: 17.7 µM
HT29 colon
  TGI: 41 µM
MDA-MB-231 breast
  TGI: 28.9 µM
EKVX NSCLC
  TGI: 29.2 µM
SN12C renal
  TGI: 25.1 µM
A549 NSCLC
  TGI: > 54.2 µM
A498 renal
  TGI: 28.9 µM
KM12 colon
  TGI: > 56 µM
NCI-H226 lung
  TGI: 31.7 µM
MALME-3M melanoma
  TGI: 20.5 µM
NCI-H460 lung
  TGI: 31.9 µM
UACC-257 melanoma
  TGI: 13 µM
OVCAR-3 ovarian
  TGI: 16.3 µM
SK-MEL-2 melanoma
  TGI: 22 µM
LOX IMVI melanoma
  TGI: 24.4 µM
SF-295 CNS
  TGI: 36.2 µM
NCI-H522 lung
  TGI: 7.89 µM
T-47D breast
  TGI: 28.5 µM
OVCAR-8 ovarian
  TGI: 16.3 µM
K-562 leukemia
  TGI: > 33.5 µM
U251 CNS
  TGI: 31.6 µM
TK-10 renal
  TGI: 11.1 µM
NCI/ADR-RES ovarian
  TGI: 35.1 µM
HS 578T breast
  TGI: 36 µM
UACC-62 melanoma
  TGI: 28.4 µM
PC-3 prostate
  TGI: 17.9 µM
SK-MEL-28 melanoma
  TGI: 33.7 µM
COLO 205 colon
  TGI: 7.21 µM
HCT-116 colon
  TGI: 23.3 µM
SK-OV-3 ovarian
  TGI: 37.8 µM
SNB-75 CNS
  TGI: 26.8 µM
DU-145 prostate
  TGI: 19.9 µM
SF-268 CNS
  TGI: 35.5 µM
ACHN renal
  TGI: 14.6 µM
M14 melanoma
  TGI: 32.3 µM
HCC-2998 colon
  TGI: 21.2 µM
OVCAR-4 ovarian
  TGI: > 41.6 µM
CAKI-1 renal
  TGI: 38.2 µM
RPMI-8226 leukemia
  TGI: 19.2 µM
786-0 renal
  TGI: 22.1 µM
NCI-H23 lung
  TGI: 30.4 µM
HL-60(TB) leukemia
  TGI: 5.33 µM
MDA-N
  TGI: 25.2 µM
OVCAR-5 ovarian
  TGI: 32 µM
MCF7 breast
  TGI: 13.6 µM
MDA-MB-435
  TGI: > 39.3 µM
IGROV1 ovarian
  TGI: 22 µM
